“Also recorded” adds a separate entry of the source.
Tests used:
[1] = system: normal lung fibroblasts (NLF); assay: Immunocytochemistry and laser confocal microscopy of CSD peptide-treated NLF; type: cell-based, human
Procedure: (§1) NLF or SLF cultured in 4-well glass chamber slides (Nalge Nunc International, Naperville, Ill.) as previously described (43) were incubated with CSD peptide or scrambled (Scr) peptide, fixed, permeabilized, and stained red with 7-aminoactinomycin D to detect nuclei and green using appropriate primary and secondary antibodies to detect caveolin-1 or ph-ERK. Images were captured by confocal microscopy.
(§2) NLF or SLF cultured in 4-well glass chamber slides (Nalge Nunc International, Naperville, Ill.) as previously described (43) were incubated with CSD peptide or scrambled (Scr) peptide, fixed, permeabilized, and stained red with 7-aminoactinomycin D to detect nuclei and green using appropriate primary and secondary antibodies to detect ph-JNK or ph-Akt. Images were captured by confocal microscopy.
(§3) NLF and SLF were cultured in 4-well glass chamber slides (Nalge Nunc International, Naperville, Ill.) and stained as previously described (43) using the indicated primary antibodies and appropriate secondary antibodies tagged with Alexa Fluoro® 488 (Molecular Probes, Eugene, Oreg.). Nuclei were stained with 7-aminoactinomycin D (Molecular Probes, Eugene, Oreg.). Images were acquired using a Zeiss 510SML Laser Confocal Microscope (excitation S490/20, emission D528/38) fitted with an oil-immersion objective (40×/1.4).

[2] = system: scleroderma lung fibroblasts (SLF); assay: Collagen and ASMA expression in SLF treated with CSD and its subdomains; type: cell-based, human
Procedure: (§4) The indicated cell types (NLF and SLF) were cultured as described with 0, 1, 3, or 5 μM of the indicated peptides. Collagen in the medium and ASMA and actin (loading control) in the cell layer were detected by Western blotting. Blots were quantified densitometrically. The level of collagen and ASMA in cells treated with no peptide (divided by the level of actin) was set to 100 arbitrary units. Because SLF express higher levels of collagen and ASMA than do NLF, 100 arbitrary of collagen in SLF is equivalent to 195 arbitrary units of collagen in NLF and 100 arbitrary units of ASMA in SLF is equivalent to 255 arbitrary units of ASMA in NLF. The data presented are the average of the densitometric quantification of three independent experiments.
(§5) To compare the activity of CSD to its subdomains, five subdomains [A (82-88 amino acids), B (89-95), C (96-101), AB (82-95) and BC (89-101)] were synthesized in fusion with the Antennapedia internalization sequence and added to culture medium at 1, 3, and 5 μM. […] Very different results were obtained when examining ASMA expression.

[3] = system: scleroderma lung fibroblasts (SLF); assay: Immunocytochemistry and laser confocal microscopy of CSD peptide-treated SLF; type: cell-based, human
Procedure: as §1, §2, §3

[4] = system: normal lung fibroblasts (NLF); assay: Collagen and ASMA expression in NLF treated with CSD and its subdomains; type: cell-based, human; details: 3 μM peptide
Procedure: as §4, §5

[5] = system: normal lung fibroblasts (NLF); assay: CSD peptide treatment of NLF, Western blotting; type: cell-based, human
Excerpt: Fibroblasts were derived from lung tissue obtained at autopsy from scleroderma patients (SLF) and from age-, race-, and sex-matched normal subjects (NLF) and cultured as previously described (44). Cells were used in passages 2-4. The group of scleroderma patients fulfilled the criteria of American college of Rheumatology for the diagnosis of scleroderma with lung involvement. Normal human lung tissue was obtained from the Brain and Tissue Bank for Developmental Disorders (Baltimore, Md.) or from the National Disease Research Interchange (Philadelphia, Pa.). Scleroderma lung tissue was obtained from the Division of Pathology and Laboratory Medicine at the Medical University of South Carolina (MUSC). The study was approved by the Institutional Review Board for Human Subject Research at the MUSC.
The CSD peptide (amino acids 82-101 of caveolin-1; […]) (SEQ ID NO: 1) and a scrambled control peptide ([…]) (SEQ ID NO: 2) were synthesized as fusion peptides to the C terminus of the Antennapedia internalization sequence (RQIKUVFQNRRMKWKK) (SEQ ID NO: 3). Before each experiment, desiccated peptides were dissolved at a final 1 mM in 10% DMSO as described by Bernatchez et al. (4). Cells in 6-well plates at 70-80% confluence were then incubated with 1 ml serum-free DMEM containing […] CSD or scrambled peptide. After 6 h, the culture medium and cell layer were harvested.
Cell layers were harvested in boiling SDS-PAGE sample buffer; medium was dialyzed, lyophilized, and resuspended in sample buffer. Aliquots of culture medium or of cell layer representing material derived from the same number of cells was probed using the following primary antibodies and appropriate secondary antibodies. Culture medium: goat anti-human collagen I (AB758P) and rabbit anti-human tenascin-C (AB19011) from Chemicon International (Temecula, Calif.). Cell layer: rabbit antibodies against PKCα (sc-208), PKCε (sc-214), activated JNK (sc-12882), activated Akt Thr 308 (sc-166646R) and caveolin-1 (sc-894) from Santa Cruz Biotechnology (Santa Cruz, Calif.); rabbit antibodies against ERK 1/2 (9102), activated ERK 1/2 (9106), JNK (9252), Akt (9272), MEK 1/2 (9122), and activated MEK 1/2 (9121) from Cell Signaling (Beverly, Mass.); mouse monoclonal anti-ASMA (clone 1A4) from Sigma (Saint Louis, Mo.), and mouse monoclonal anti-actin (MAB1501) from Chemicon International (Temecula, Calif.).
Immunoreactive bands were quantified by densitometry using the Image 1.32J NIH software. For statistical analysis the raw densitometric data were processed and analyzed using the Prism 3.0 (GraphPad Software Inc.) statistical analysis software.

[6] = system: eNOS; details: endothelial cells; Bernatchez et al. (4); cited from earlier work
[7] = CSD peptide vs scrambled peptide

In the case of DGIWKASFTTFTVTKYWFYR [CSD peptide], the “distribution of caveolin-1 staining” value ([1]; CSD peptide vs Scr peptide) is reported as “staining associated with the plasma membrane becoming more prominent”, the “level of caveolin-1 expression detected by IHC” value ([1]; CSD peptide vs Scr peptide) is reported as “did not affect” and the “distribution of activated Akt staining” value ([1]; CSD peptide vs control peptide) is reported as “preferentially decreased perinuclear, nuclear, and cytoplasmic staining while increasing staining associated with the plasma membrane”. The “distribution of activated JNK staining” value ([1]; CSD peptide vs control peptide) was “preferentially decreased perinuclear staining and increased staining associated with the plasma membrane”, the “level of activated Akt (IHC)” value ([1]; CSD peptide vs control peptide) was “decreases” and the “level of activated ERK (IHC)” value ([1]; CSD peptide vs control peptide) was “decreases”. For the same sequence, the “level of activated JNK (IHC)” value ([1]; CSD peptide vs control peptide) was “decreases”, the “localization of residual activated ERK staining” value ([1]; after CSD peptide) was “primarily perinuclear and cytoplasmic” and the collagen expression ([2]; 3 μM peptide) was “completely inhibited”. The “inhibition of ASMA expression” value ([2]; 5 μM peptide) was “about 80%”, the ASMA expression ([2]; peptides at 1, 3, and 5 μM) was “inhibited” and the “level of caveolin-1 expression detected by IHC” value ([3]; CSD peptide vs Scr peptide) was “did not affect”. For the same sequence, the “distribution of caveolin-1 staining” value ([3]; CSD peptide vs Scr peptide, particularly in SLF) was “staining associated with the plasma membrane becoming more prominent”, the “distribution of activated Akt staining” value ([3]; CSD peptide vs control peptide) was “preferentially decreased perinuclear, nuclear, and cytoplasmic staining while increasing staining associated with the plasma membrane” and the “distribution of activated JNK staining” value ([3]; CSD peptide vs control peptide) was “preferentially decreased perinuclear staining and increased staining associated with the plasma membrane; also recorded: eliminated the intense punctate cytoplasmic staining”. For the same sequence, the “level of activated Akt (IHC)” value ([3]; CSD peptide vs control peptide) was “decreases”, the “level of activated ERK (IHC)” value ([3]; CSD peptide vs control peptide) was “decreases” and the “level of activated JNK (IHC)” value ([3]; CSD peptide vs control peptide) was “decreases”. For the same sequence, the “localization of residual activated ERK staining” value ([3]; after CSD peptide) was “primarily perinuclear and cytoplasmic”, the collagen expression [4] was “completely inhibited” and the “time in which inhibition of collagen expression occurs” value ([5]; 5 μM CSD) was “less than 5 hours”. For the same sequence, the “decrease of MEK/ERK activation” value ([5]; 5 μM CSD peptide vs scrambled peptide) was “about 50%”, the “inhibition of collagen expression” value ([5]; 5 μM CSD peptide vs scrambled peptide, collagen in culture medium, Western blotting) was > 95% and the “activation of Akt” value ([5]; CSD peptide vs Scr peptide) was “inhibited”. For the same sequence, the “activation of JNK” value ([5]; CSD peptide vs Scr peptide) was “inhibited”, the “expression of total MEK, total ERK, total Akt, or total JNK” value ([5]; CSD peptide vs Scr peptide) was “did not affect” and the “expression of caveolin-1 itself, PKCα, or PKCε” value [5, 7] was “did not affect”. The tenascin-C expression [5, 7] was “inhibited” and the eNOS activity [6] was “most strongly inhibited”.
